Here are results for ten compounds from ChEMBL document CHEMBL1201862, “PubChem BioAssay data set” (2004).

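48-hour exposure; five concentrations; linearly interpolated endpoints. GI50 = concentration required for 50% inhibition of growth.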 Active and inactive are the calls of the source. Cut-off read from the data, not from the text of the source: active = GI50 up to about 1.1 µM and inactive = higher.

Among the test systems are NCI-H522; K562; OVCAR-3; KM12; HOP-92; LOX IMVI; HCT-15; IGROV-1; SNB-75; Hs-578T; SW-620; CAKI-1; SK-OV-3; SF-268; SNB-19; RPMI-8226; OVCAR-5; DU-145; SK-MEL-5; NCI/ADR-RES.
Holding throughout (assay): NCI-60 cell line screen, 48 h

Consider `O=C(O)CN(CC(=O)O)c1ccccc1`, for which the GI50 with NCI-H522 was 26.9 µM (inactive); with K562 it was 35 µM (inactive); with OVCAR-3, 75.2 µM (inactive); in the test on KM12 it was 60.1 µM (inactive); in the test on HOP-92, 48.9 µM (inactive); in the test on LOX IMVI, > 100 µM (inactive). In addition, the GI50 in the test on HCT-15 is over 100 µM; with IGROV-1, > 100 µM (inactive); in the test on SNB-75 it was > 100 µM (inactive); with Hs-578T it was 80 µM (inactive); in the test on SW-620, > 100 µM (inactive); in the test on CAKI-1 it was > 100 µM (inactive). The GI50 in the test on SK-OV-3 is > 100 µM (inactive); in the test with SF-268, > 100 µM (inactive); with SNB-19, > 100 µM (inactive); with RPMI-8226, 35.6 µM (inactive); in the test on OVCAR-5, > 100 µM (inactive); in the test on DU-145 it was > 100 µM (inactive). For the same compound, the GI50 with SK-MEL-5 was 84.5 µM (inactive); in the test on NCI/ADR-RES it was > 100 µM (inactive).

`COc1cc(OC)c2c(O)c3c(cc2c1)CC(C)(C)CC3=O`: the GI50 is > 64.3 µM (inactive) in the test on NCI-H522; > 74.1 µM (inactive) with OVCAR-3; > 92.3 µM (inactive) with KM12; > 100 µM (inactive) in the test with HOP-92; > 100 µM (inactive) in the test with LOX IMVI; over 100 µM in the test on HCT-15. In addition, the GI50 was > 100 µM (inactive) in the test with IGROV-1; 49.7 µM (inactive) with SNB-75; 16.3 µM (inactive) with Hs-578T; 59 µM (inactive) in the test with SW-620; > 100 µM (inactive) with CAKI-1; > 100 µM (inactive) in the test with SK-OV-3. For the same compound, the GI50 in the test on SF-268, with SNB-19, in the test with RPMI-8226, with OVCAR-5, with DU-145 and in the test with SK-MEL-5 was > 100 µM (inactive) each time. Further, the GI50 with NCI/ADR-RES is > 100 µM (inactive).

For `COc1cc2c(cc1OCCCC(=O)Nc1cc(C(=O)NCCCN(C)C)n(C)n1)N=CC1CCCN1C2=O` (stereo not drawn), the GI50 is 5.37 µM (inactive) in the test on NCI-H522; 0.123 µM (active) with K562; 27.5 µM (inactive) in the test on OVCAR-3; > 100 µM (inactive) in the test with KM12; 6.56 µM (inactive) in the test with HOP-92; 7.71 µM (inactive) with LOX IMVI. Further, the GI50 in the test on HCT-15 is 8.55 µM; with IGROV-1, 6.7 µM (inactive); with SNB-75 it was 7.85 µM (inactive); in the test with Hs-578T it was 11 µM (inactive); in the test with SW-620 it was 8.63 µM (inactive); with CAKI-1, 21.6 µM (inactive). The GI50 in the test on SK-OV-3 is > 42.2 µM (inactive); with SF-268, 16.2 µM (inactive); in the test with SNB-19, 10 µM (inactive); with RPMI-8226, 5.66 µM (inactive); in the test on OVCAR-5, 10.5 µM (inactive); in the test on DU-145, 12.9 µM (inactive). In addition, the GI50 with SK-MEL-5 is 5.68 µM (inactive); with NCI/ADR-RES, > 33.5 µM (inactive).

For the compound `CCOC(=O)C(NC(=O)CC)(Nc1ccc(S(=O)(=O)Nc2nc(C)cc(C)n2)cc1)C(F)(F)F` (stereo not drawn), the GI50 with NCI-H522 is 31.6 µM (inactive); with K562, > 100 µM (inactive); with OVCAR-3 it was > 100 µM (inactive); in the test on KM12 it was > 100 µM (inactive); in the test on HOP-92 it was > 100 µM (inactive); in the test with LOX IMVI it was > 100 µM (inactive). The GI50 with HCT-15 was over 100 µM; with IGROV-1, > 100 µM (inactive); in the test on SNB-75, > 100 µM (inactive); in the test with Hs-578T it was > 100 µM (inactive); in the test with SW-620, > 100 µM (inactive); with CAKI-1, > 100 µM (inactive). The GI50 with SK-OV-3, in the test with SF-268, in the test with SNB-19, with RPMI-8226, in the test on OVCAR-5 and in the test on DU-145 was > 100 µM (inactive) each time. Further, the GI50 in the test with SK-MEL-5 and in the test with NCI/ADR-RES was > 100 µM (inactive) in each case.

Turning to `COC1(CC[C@@H](C)COC2OC(CO)C(O)C(O)C2O)O[C@H]2C[C@H]3[C@@H]4CC=C5C[C@@H](OC6OC(CO)C(OC7OC(C)C(O)C(O)C7O)C(O)C6OC6OC(C)C(O)C(O)C6O)CC[C@]5(C)[C@H]4CC[C@]3(C)[C@H]2[C@@H]1C` (stereo partly drawn), the GI50 was 2.08 µM (inactive) with NCI-H522; 18.2 µM (inactive) with K562; 2.36 µM (inactive) with OVCAR-3; 2.1 µM (inactive) in the test with KM12; 3.25 µM (inactive) in the test with HOP-92; 1.73 µM (inactive) with LOX IMVI. The GI50 in the test with HCT-15 was 1.98 µM; with IGROV-1, 4.59 µM (inactive); in the test with SNB-75, 2.06 µM (inactive); in the test on Hs-578T, 2.55 µM (inactive); in the test on SW-620 it was 1.14 µM (inactive); with CAKI-1, 1.53 µM (inactive). For the same compound, the GI50 is 1.66 µM (inactive) with SK-OV-3; 3.18 µM (inactive) in the test on SF-268; 3.17 µM (inactive) in the test with SNB-19; 6.62 µM (inactive) with RPMI-8226; 4.41 µM (inactive) in the test with OVCAR-5; 2.28 µM (inactive) in the test with DU-145. For the same compound, the GI50 with SK-MEL-5 was 6.12 µM (inactive); in the test on NCI/ADR-RES it was 3.18 µM (inactive).

In the case of `C=C1C(=O)OC2/C=C(\CO)CC/C=C(\CO)CC(OC(=O)C(C)C)C12` (stereo not drawn), the GI50 in the test with NCI-H522 is 1.56 µM (inactive); in the test on K562, 1.71 µM (inactive); in the test with OVCAR-3, 11.6 µM (inactive); with KM12 it was 18.2 µM (inactive); with HOP-92, 1.27 µM (inactive); in the test with LOX IMVI it was 13.5 µM (inactive). Besides, the GI50 in the test with HCT-15 was 3.19 µM; with IGROV-1 it was 15.7 µM (inactive); in the test with SNB-75 it was 16.5 µM (inactive); with Hs-578T, 19.9 µM (inactive); in the test on SW-620, 4.41 µM (inactive); with CAKI-1, 1.9 µM (inactive). The GI50 is 27.2 µM (inactive) with SK-OV-3; 13.9 µM (inactive) in the test on SF-268; 21.5 µM (inactive) with SNB-19; 3.37 µM (inactive) in the test with RPMI-8226; 15.9 µM (inactive) with OVCAR-5; 12.7 µM (inactive) with DU-145. In addition, the figures for the GI50 with SK-MEL-5 and in the test with NCI/ADR-RES were 19 µM (inactive) and 17.6 µM (inactive), respectively.

As to `CNC(=O)O/N=C1\N(C)CN(c2ccccc2)C12CCN(CCCC(=O)c1ccc(F)cc1)CC2`, the GI50 in the test with NCI-H522 is 99.8 µM (inactive); in the test on K562, 38.5 µM (inactive); with OVCAR-3, 55.1 µM (inactive); in the test with KM12, 27.7 µM (inactive); in the test on HOP-92, 35.6 µM (inactive); in the test with LOX IMVI it was 31.1 µM (inactive). In addition, the GI50 in the test on HCT-15 is over 100 µM; in the test with IGROV-1 it was 46.8 µM (inactive); in the test with SNB-75, 1.01 µM (active); in the test with Hs-578T, > 100 µM (inactive); in the test on SW-620 it was > 100 µM (inactive); in the test on CAKI-1, > 100 µM (inactive). For the same compound, the GI50 in the test on SK-OV-3 is > 100 µM (inactive); with SF-268 it was > 100 µM (inactive); with SNB-19, > 100 µM (inactive); with RPMI-8226, > 100 µM (inactive); with OVCAR-5, 58.2 µM (inactive); with DU-145 it was > 100 µM (inactive). Moreover, the GI50 in the test with SK-MEL-5 is 18.5 µM (inactive); with NCI/ADR-RES it was 45.9 µM (inactive).

In the case of `CCCCCCCCCCCCCCCCCCNc1ccn(C2OC(COP(=O)(O)OC3CC(n4cc(F)c(=O)[nH]c4=O)OC3COP(=O)(O)OCC3OC(n4ccc(N)nc4=O)C(O)C3O)C(O)C2O)c(=O)n1` (stereo not drawn), the GI50 in the test with NCI-H522 is 13 µM (inactive); in the test on K562 it was 16.6 µM (inactive); in the test with OVCAR-3, 30.5 µM (inactive); in the test with KM12, 14.4 µM (inactive); with HOP-92, > 60.4 µM (inactive); in the test with LOX IMVI it was 0.139 µM (active). The GI50 in the test with HCT-15 is 12.2 µM; in the test on IGROV-1 it was 15.2 µM (inactive); in the test with SNB-75, 38.6 µM (inactive); in the test with Hs-578T, > 67.8 µM (inactive); with SW-620 it was 16.2 µM (inactive); in the test with CAKI-1, 4.47 µM (inactive). Also, the GI50 in the test with SK-OV-3 is 19.9 µM (inactive); in the test on SNB-19 it was 9.2 µM (inactive); with RPMI-8226, 14.9 µM (inactive); in the test with OVCAR-5, 36.5 µM (inactive); in the test on DU-145, 1.08 µM (active); in the test on SK-MEL-5 it was 3.62 µM (inactive). Besides, in the test on NCI/ADR-RES, the GI50 was 14.5 µM (inactive).

For `Nc1ccc(-c2nc3cc(F)ccc3s2)cc1Cl`, the GI50 in the test with NCI-H522 was 20.5 µM (inactive); in the test with K562, 14.8 µM (inactive); in the test with OVCAR-3 it was 0.049 µM (active); in the test on KM12 it was 8.99 µM (inactive); in the test on HOP-92, 25.5 µM (inactive); in the test with LOX IMVI, > 77.4 µM (inactive). The GI50 was 0.134 µM in the test with HCT-15; < 0.01 µM (active) with IGROV-1; 20.5 µM (inactive) in the test with SNB-75; 27.1 µM (inactive) in the test with Hs-578T; > 100 µM (inactive) with SW-620; 8.67 µM (inactive) in the test on CAKI-1. The GI50 is 19.1 µM (inactive) in the test with SK-OV-3; 25.5 µM (inactive) in the test with SF-268; 32.4 µM (inactive) in the test on SNB-19; > 55.1 µM (inactive) in the test with RPMI-8226; 0.0219 µM (active) with OVCAR-5; 63.2 µM (inactive) with DU-145. Further, the results for the GI50 in the test with SK-MEL-5 and in the test with NCI/ADR-RES were 25.5 µM (inactive) and 48.9 µM (inactive), respectively.

As to `CSc1ccccc1P(CCP(c1ccccc1SC)c1ccccc1SC)c1ccccc1SC`, the GI50 is 28.1 µM (inactive) with NCI-H522; 1.67 µM (inactive) in the test with K562; 0.543 µM (active) in the test with OVCAR-3; 18.6 µM (inactive) with KM12; 61.1 µM (inactive) with HOP-92; 22.6 µM (inactive) in the test with LOX IMVI. In addition, the GI50 in the test with HCT-15 was over 67 µM; with IGROV-1, 0.8 µM (active); in the test with SNB-75, 13 µM (inactive); with Hs-578T, 28.7 µM (inactive); in the test with SW-620 it was 16.7 µM (inactive); with CAKI-1, > 84.5 µM (inactive). Moreover, the GI50 was 16.3 µM (inactive) in the test with SK-OV-3; 36.4 µM (inactive) in the test on SF-268; 35.4 µM (inactive) in the test with SNB-19; 4.47 µM (inactive) with RPMI-8226; 43.9 µM (inactive) with OVCAR-5; 54.5 µM (inactive) in the test with DU-145. The GI50 in the test with SK-MEL-5 is 55.5 µM (inactive); with NCI/ADR-RES it was > 93.1 µM (inactive).
